One data set deals with NOD mice. As to the kind of experiment: Development of spontaneous autoimmune diabetes in peptide-treated NOD female mice. The class given is in vivo. The text has this: To test whether the hypothesis could in fact predict the different outcomes outlined in Table I, we treated groups of NOD female mice with repeated injections of NRP-A4, NRP-I4 and NRP-V7, and followed the mice for development of spontaneous autoimmune diabetes. T cells were also harvested from the treated mice and tested with various ligand/MHC tetramers to determine the impact of the treatment on T cell populations. […] Since these cells have higher diabetogenic potential (see above), it is likely that their accumulation into islets is the single mechanism that accounts for the accelerated onset of diabetes seen in NRP-I4-treated mice. […]
The hypothesis put forth above predicted that, in vivo, each of these peptides would trigger T cells differently depending on the T cells' avidity for NRP. This is summarized in Table I. To test whether the hypothesis could in fact predict the different outcomes outlined in Table I, we treated groups of NOD female mice with repeated injections of NRP-A4, NRP-I4 and NRP-V7, and followed the mice for development of spontaneous autoimmune diabetes. […] Since these cells have higher diabetogenic potential (see above), it is likely that their accumulation into islets is the single mechanism that accounts for the accelerated onset of diabetes seen in NRP-I4-treated mice.
To test the effect of dosage of the peptide ligands on T cell clonal delection or expansion, we treated groups of NOD female mice with repeated injections of “low” or “high” doses of TUM (negative control), NRP, NRP-A7, NRP-A4, NRP-I4 and NRP-V7. Low concentrations of peptide were prepared by resuspending 100 mg of dry peptide in PBS in the absence of acids. The peptides in these preparations, which were also used in previous Examples, are aggregated, and the effective concentrations were low. Soluble, high concentrations of peptide were prepared by diluting 100 mg of soluble peptide (solubilized in the presence of acid) in PBS. The mice were followed for development of spontaneous autoimmune diabetes.

Data set [1] concerns NRP-A7-reactive CD8+ T cells. Description: Islet-associated CD8+ T cells of peptide-treated NOD mice (tetramer staining, binding kinetics, cytotoxicity). The class given is in vivo. The text has this:
To test whether the hypothesis could in fact predict the different outcomes outlined in Table I, we treated groups of NOD female mice with repeated injections of NRP-A4, NRP-I4 and NRP-V7, and followed the mice for development of spontaneous autoimmune diabetes. T cells were also harvested from the treated mice and tested with various ligand/MHC tetramers to determine the impact of the treatment on T cell populations. […] Since these cells have higher diabetogenic potential (see above), it is likely that their accumulation into islets is the single mechanism that accounts for the accelerated onset of diabetes seen in NRP-I4-treated mice.
To ascertain whether the NRP-A7 treatment had induced the deletion of NRP-A7-reactive CD8^+ T cells, we examined islets of peptide-treated, non-diabetic 32 wk-old mice for the presence of this T cell population. […] To determine whether this resulted from the absence of clonotypes bearing high affinity TCRs for NRP-A7, we compared the kinetics of NRP-A7 tetramer binding to CD8^+ T cells derived from peptide-treated mice. […] Since treatment with NRP-A7 also halted the progression from benign to pernicious islet inflammation, we concluded that development of IDDM in NOD mice requires the avidity maturation of the NRP-A7-reactive CD8^+ T cell population.
The effect of the peptides on T cell populations was also determined.

Data set [2] relates to islet-derived CD8+ T cells. As to the kind of experiment: Peptide/H-2Kd tetramer staining of islet-derived CD8+ T cells. The format is binding, NOD mice. The text has this: (§1) To confirm that these peptides were recognized with different avidity by 8.3-CD8^+ T cells, we produced and tested peptide/MHC tetramers as previously described (39). A tetramer is preferably used in avidity determinations because tetramers bind more strongly than the corresponding monomers, while maintaining the same relative avidities when a plurality of ligands are compared. […] These peptides were recognized with different avidity not only by 8.3-CD8^+ T cells, but also by the polyclonal NRP-reactive CD8^+ T cells that can be propagated from the pancreatic islets of 20 wk-old NOD mice.
Since tetramer-reactive cells represent a very small fraction of all the islet-associated T cells, we analyzed the presence of tetramer-reactive clonotypes within the cell population that has undergone antigen-driven activation and thus is likely to contain autoreactive specificities. Islets from non-diabetic 5, 9, 15 and 20 wk-old NOD mice were cultured in the presence of rIL-2 for 6-7 d, to selectively expand IL-2R-positive T cells [˜10% of all the islet-associated CD8^+ T cells (30)]. There were age-dependent increases in the number of T cells recovered from NOD islets and in the % of CD8^+ T cells contained within lines. […]

The subject of data set [3] is CD8+ T cells propagated from islets of acutely diabetic NOD mice. As to the kind of experiment: Killing of peptide-pulsed RMA-SKd cells by islet-derived CD8+ T cell lines and clones. The class given is cell-based. The text has this: To confirm that the islet associated CD8^+ T cells of most NOD mice contain clones capable of recognizing the NRP/Kd complex, we generated 31 CD8^+ CTL clones from islets of 9 NOD mice, and tested the clones' ability to kill NRP- or TUM-pulsed RMA-SKd cells. Of the 31 clones tested, 14 (45%) were cytotoxic against NRP-, but not TUM-pulsed, RMA-SKd targets (FIGS. 7B and C).

Data set [4] concerns naïve or activated 8.3-CD8+ T cells. As to the kind of experiment: Functional testing of NRP mimics (proliferation, cytokine secretion, cytotoxicity, antagonism). The format is cell-based, mouse (8.3-TCRαβ-transgenic NOD). The text has this: To test the validity of this hypothesis, we produced mimics of NRP capable of engaging the 8.3-TCR (a TCR that is representative of the TCRs used by NRP-reactive CD8^+ T cells in the NOD mouse) with very low or very high affinity (when compared to NRP and NRP-A7). This was done by generating numerous single amino acid mutants of NRP (NRP mimics) and by testing the ability of each mutant to elicit proliferation, cytokine secretion and cytotoxicity of naïve or activated 8.3-CD8^+ T cells. Some of the NRP mimics that were unable to elicit the activation of naïve 8.3-CD8^+ T cells were tested for antagonism. Antagonist mimics are unable to elicit the functional activity of T cells but antagonized the agonistic activity of functional mimics (i.e. NRP and NRP-A7). […] Of these, NRP-A4 was the most powerful and was chosen for further experimentation. […] FIG. 15 compares the agonistic properties of all these peptides on naïve 8.3-CD8^+ T cells.
To test the validity of this hypothesis, we produced mimics of NRP capable of engaging the 8.3-TCR (a TCR that is representative of the TCRs used by NRP-reactive CD8^+ T cells in the NOD mouse) with very low or very high affinity (when compared to NRP and NRP-A7). This was done by generating numerous single amino acid mutants of NRP (NRP mimics) and by testing the ability of each mutant to elicit proliferation, cytokine secretion and cytotoxicity of naïve or activated 8.3-CD8^+ T cells. Some of the NRP mimics that were unable to elicit the activation of naïve 8.3-CD8^+ T cells were tested for antagonism. Antagonist mimics are unable to elicit the functional activity of T cells but antagonized the agonistic activity of functional mimics (i.e. NRP and NRP-A7). […] Peptide-induced responses are color-coded from low, medium, […], high and very high (blue, yellow, green and red, respectively). The data are representative of 3 different experiments.
Of these, NRP-A4 was the most powerful and was chosen for further experimentation. […] FIG. 15 compares the agonistic properties of all these peptides on naïve 8.3-CD8^+ T cells.

The next data set deals with 8.3-CD8+ T cells. As to the kind of experiment: Repeated peptide administration to 8.3-TCRαβ-transgenic NOD mice. The class given is in vivo. Conditions: repeated administration via i.p. and f.p. routes; unpublished data.
The test system of data set [5] is 8.3-TCR on 8.3-CD8+ T cells. As to the kind of experiment: Peptide/MHC tetramer binding to 8.3-CD8+ T cells. Further details: species or system mouse (8.3-TCRαβ-transgenic NOD).
Description: as §1
(§2) In order to follow the accumulation of antigen-specific CD8^+ T cells in islets of pre-diabetic NOD mice, we generated H-2Kd tetramers containing the peptides NRP, NRP-A7, TUM or INS [LYLVCGERG; an insulin-derived peptide recognized by islet-associated T cells from young NOD mice (38)]. The NRP and NRP-A7 tetramers stained virtually all the splenic CD8^+ T cells from 8.3-TCRαβ-transgenic NOD mice, but <1% of the splenic CD8^+ T cells from NOD mice. The INS tetramer stained the INS-reactive CTL clone G9C8 (38), but neither this tetramer nor the negative control tetramer (TUM) stained the splenic CD8^+ T cells from NOD or 8.3-TCRαβ-transgenic NOD mice (data not shown).
To confirm that these peptides were recognized with different avidity by 8.3-CD8^+ T cells, we produced and tested peptide/MHC tetramers. […] These peptides were recognized with different avidity not only by 8.3-CD8^+ T cells, but also by the polyclonal NRP-reactive CD8^+ T cells that can be propagated from the pancreatic islets of 20 wk-old NOD mice.

The test system of data set [6] is INS-reactive CTL clone G9C8. As to the kind of experiment: Tetramer staining of CTL clone G9C8. Conditions: H-2Kd tetramer. The format is binding.
Description: as §2

“Also recorded” adds a separate entry of the source. Peptide text beside a SMILES is read from it.

For KYNKANAFL [NRP-A7], the “Action (high dose)” value with NOD mice (Table II, effect on diabetes, high dose, repeated injections) is reported as “No effect”. For the same molecule, in the data set with NOD mice (Table II, effect on diabetes, low dose, repeated injections), the “Action (low dose)” value was “protective”. In the data set on NOD mice (high concentration (acid-solubilized peptide in PBS), repeated injections), the “effect on diabetes at high dose/concentration” value is listed as “no effect; also recorded: rather ineffective; also recorded: did not efficiently protect the mice from diabetes”. Further, in the data set with NOD mice (low concentration (aggregated peptide in PBS), repeated injections), the “effect on diabetes at low dose/concentration” value was “anti-diabetogenic; also recorded: significant protective effect; also recorded: diabetes resistance”. The “development of IDDM/diabetes in treated NOD mice” value in the data set on NOD mice (repeated injections (100 μg in PBS i.p. in Example 6), low dosage according to b141) is listed as “highly protected”. Besides, the “cytotoxicity of islet-derived CD8+ T cells of treated mice” value in data set [1] (NRP-A7-pulsed RMA-SKd targets) is “less cytotoxic to NRP-A7-pulsed, RMA-SKd targets than those derived from NRP- or control peptide-treated mice”. Besides, the “insulin 15-23-reactive CD8+ T cells in islets of treated mice” value in data set [1] (b198: high concentration NRP-A7, low and high concentrations NRP-V7) is “significantly increased percentages of insulin 15-23 tetramer-reactive CD8^+ T-cells”. For the same molecule, the “effect on NRP-A7-reactive T cells in islets, high concentration” value in data set [1] (high concentration) is recorded as “nearly complete deletion of all NRP-A7-reactive cells”. In data set [1] (low concentration), the “effect on NRP-A7-reactive T cells in islets, low concentration” value was “fostered the accumulation of low avidity NRP-A7-reactive T-cells in islets”. Besides, in data set [1] (repeated injections), the “effect of treatment on high/low avidity NRP-reactive CD8+ T cell subpopulations (conclusion)” value is “blunted the avidity maturation of the NRP-A7-reactive CD8^+ T cell population; also recorded: promoted the expansion of the low avidity T cell subpopulation; also recorded: selectively eliminated those NRP-A7-reactive CD8^+ T cells expressing high affinity TCRs for NRP-A7”. Further, the “NRP/NRP-A7 tetramer-reactive CD8+ T cells in islets of treated mice” value in data set [1] (repeated injections, low dosage according to b141) is recorded as “greater numbers of NRP-A7 tetramer-reactive cells than control peptide-treated mice”. Moreover, the “size of the tetramer-reactive CD8+ T cell population in islets” value in data set [2] (by 15 wk, islets cultured with rIL-2 6-7 d) is recorded as about 18%. Further, the “number of islet-derived CD8+ T cells bound by tetramer, comparative” value in data set [2] (islets of 20 wk-old NOD mice) is “more cells bound the NRP-A7 than the NRP tetramers”. Moreover, in data set [3] (reference 37), the “islet-associated CD8+ T cell clones recognizing the peptide” value stood at 45% and the “islet-associated CD8+ T cell lines recognizing the peptide” value was determined as 87%. Further, the “functional class of the peptide on 8.3-CD8+ T cells” value in data set [4] was “super-agonist”. Besides, in data set [4] (Table I), the Function entry is on record as “superagonist”. Further, the “Function (of Function/Avidity)” value in data set [4] (Table II) is “superagonist”. For the same molecule, the “agonistic/antagonistic activity, comparative statement” value in data set [4] (naive 8.3-CD8+ T cells) is on record as “superior agonistic properties”. Moreover, the “effect on 8.3-CD8+ T cells” value with 8.3-CD8+ T cells is “induced the deletion of 8.3-CD8^+ T cells”. The “avidity class of the peptide” value in data set [5] is listed as “high avidity”. Moreover, in data set [5] (Table II), the “Avidity (of Function/Avidity)” value is listed as “high”. In addition, in data set [5] (peptide/MHC tetramer, proportional to fluorescence intensity of stained T cells), the “avidity of tetramer binding to 8.3-CD8+ T cells” value is listed as “increased avidity”. In data set [5] (splenic CD8+ T cells from 8.3-TCRαβ-transgenic NOD mice), the “splenic CD8+ T cells stained by tetramer” value is “virtually all”.
As to `CC(C)C[C@H](NC(=O)[C@H](Cc1ccccc1)NC(=O)[C@H](Cc1c[nH]c2ccccc12)NC(=O)[C@H](CC(N)=O)NC(=O)[C@H](C)NC(=O)[C@H](CCCCN)NC(=O)[C@H](CC(N)=O)NC(=O)[C@H](Cc1ccc(O)cc1)NC(=O)[C@@H](N)CCCCN)C(=O)O` [NRP, KYNKANWFL] (H-KYNKANWFL-OH; N-terminus and C-terminus assumed), in data set [3] (14 of 31 clones from 9 NOD mice), the “islet-derived CD8+ CTL clones cytotoxic against peptide-pulsed RMA-SKd targets” value is reported as 45%.
For the molecule “LYLVCGERG [INS, insulin-derived peptide recognized by islet-associated T cells from young NOD mice]”, in data set [6], the “tetramer staining of CTL clone G9C8” value is “stained”.

These data come from patent US20030064413A1, “Compositions and methods useful in avidity therapy” (priority 2000, published 2003).
